The test system of one data set is rat liver mRNAs. Format: in vivo, Sprague-Dawley rats. To be noted: 35.7 mg/kg.
Data set [1] can be described thus: Animal wellness, histopathological examination, tolerated dose. It counts as in vivo, Sprague-Dawley rats. To be noted: actein 35.7 mg/kg; 24 hours. On the procedure: A sample of each mammary tumor was collected, frozen in liquid nitrogen and kept at −70° C.
Analysis by microscopy: Histopathological examination of H&E and H&E/Oil Red O stained sections of control and treated tissues obtained 6 or 24 hours after treatment were performed. Tissues were embedded in OCT (optimal cutting temperature compound to enable cryosectioning of the sample).
Livers were embedded in OCT (optimal cutting temperature compound to enable cryosectioning of the sample) and stained with haematoxylin and eosin (H and E). All samples were visualized with a Zeiss Axioplan 2 microscope (Carl Zeiss Inc., Thornwood, N.Y.) and images were obtained with a Nikon Coolpix 5000 (Nikon Instruments, Melville, N.Y.) camera.

Data set [2] is described as follows: Pharmacokinetic analysis of actein in serum and urine (HPLC-MS). Format: in vivo. To be noted: female, Sprague-Dawley, rat, oral, rats, 35.7 mg/kg. On the procedure: In this study two groups of 8 female rats were each treated with: 1) 35.7 mg/kg of actein, and 2) 1/5 this dose, 7.14 mg/kg, by gastric intubation. A control group of 8 female rats was treated by gastric intubation with 1 cc of water. Afresh solution of actein, suspended in water, was prepared just before the treatment.
Blood and urine collection: To determine the serum concentration of actein at different times during 24 hours, blood was sequentially collected from 4 animals of the group treated with 35.7 mg/kg actein at intervals of 0, 5, 15, 30, 60 minutes and 2, 4, 6, 8 and 24 hours after the administration of actein. For the 24 hour period, animals were starved with free access to water. Blood samples (0.5 ml) were collected through contusion of the retrobulbar plexus with a siliconated glass Pasteur pipette after anaesthetization with ethyl ether. Immediately after sacrifice, blood was drawn from the portal vein with a sterile syringe into vials without anticlotting agents. Ten minutes after each sampling (the time necessary for the formation of the clot), blood was centrifuged at 1500 g for 10 minutes, then serum was stored in cryogenic screw cap vials at −70° C. […]
HPLC-MS analysis was performed, in duplicate, by Chromadex to determine the presence and quantity of actein in serum and urine samples from Sprague-Dawley rats treated with 35.7 mg/kg actein. […]

A further data set relates to NF-κB promoter. The data set can be described thus: NF-κB reporter assay (luciferase). The conditions noted are these: MDA-MB-453, 24 h. It counts as cell-based, human. As for the experimental part:
The cyclin D1 promoter luciferase reporter plasmid, 1745CD1LUC, was prepared by Dr. R. Pestell (Albert Einstein Cancer Center, New York, N.Y.). The method used for transient transfection reporter assays was previously described (Soh et al., Novel roles of specific isoforms of protein kinase C in activation of the c-fos serum response element. Molecular and Cellular Biology, 19:1313-24, 1999). Using lipofectin, triplicate samples of MDA-MB-453 breast cancer cells (1×10^5 cells in 35-mm plates) were co-transfected using DNA of the indicated reporter plasmid (1 μg) and the β-gal plasmid as an internal control (10 μg of the pCMV-b-gal plasmid) in opti-MEM 1 medium (Life Technologies, Inc.). After 24 h, the medium was replaced with serum-free medium containing the indicated concentrations of actein. After 24 h, cells were harvested, and luciferase activity was determined with the luciferase assay system (Promega Corp. Madison, Wis.); β-gal activities were determined with the β-gal enzyme assay system (Promega). Luciferase activities were normalized to β-gal activities, to correct for differences in transfection efficiency.
NF-κB reporter assay. The NE-κB promoter luciferase reporter plasmid was from Dr. Jae Won Soh. The method for transient transfection reporter assays was as previously described.
On the technique in general: Reporter assays use an easily measured gene product as a stand-in for the process of interest.

For data set [3] the following is noted: heart failure; cited from earlier work.
The test system of another data set is MDA-MB-453 cells. Format: cell-based, human. On the procedure: RNA was isolated as previously described. […] Total RNA (8 μg) was reverse transcribed with T7-(dT)24 primer and Super Script III reverse transcriptase (Invitrogen). After purification, cDNA was in vitro transcribed into biotin labeled antisense cRNA with the BioArray high yield RNA transcript labeling kit (Enzo Life Sciences; Farmingdale, N.Y.), according to a modified Affymetrix protocol. cRNA (15 μg) was fragmented into the final probe and hybridized to human U133A 2.0 gene chips (Affymetrix, Inc.; Santa Clara, Calif.), comprised of more than 22,000 probe sets. The Institute for Cancer Genetics Core Facility at the Columbia Genome Center performed the hybridization.
Two or three replicates of each microarray were performed to determine intrasample variation. To bolster the robustness of the analysis, the effects of 4 doses for 2 time periods were examined.
All analyses were performed using the AffyLimmaGUI package in the open-source Bioconductor suite, as previously described. […] Variability is reported in terms of a p-value representing the probability that differences between treated and untreated could occur by chance. The p-value takes into account both the variability within groups (in this case the groups are treated and control) and the variability between groups.

Structures are written as SMILES. “And” between values parts separate entries of the source, which are not always exact repeats. Equal entries are not always repeated. Where two headings read alike, the source gives them in different places.

Source text for rat liver mRNAs: Total RNA was isolated using Trizol (Invitrogen, CA), and purified with the RNeasy Kit (Qiagen, CA). mRNA sequences were obtained from the public GeneBank database (www.ncbi.nlm.nih.gov), and primers were designed using Primer3 software from The Massachusetts Institute of Technology (frodo.wi.mit.edu/cgi-bin/primer3/primer3_www.cgi).

On to `CC(=O)O[C@@H]1C[C@@]23C[C@@]24CC[C@H](O[C@@H]2OC[C@@H](O)[C@H](O)[C@H]2O)C(C)(C)[C@@H]4CC[C@H]3[C@]2(C)C[C@@H]3O[C@]4(C[C@@H](C)[C@@H]3[C@@]12C)O[C@H](O)[C@@]1(C)O[C@@H]41` [actein], for which, in the data set on rat liver mRNAs (6 h), the “Fold-change relative to control, BZRP, RT-PCR” value is listed as 0.07; the “Fold-change relative to control, CCND1, RT-PCR” value was 0.52; the “Fold-change relative to control, HMGCR, RT-PCR” value is on record as −0.45; the “Fold-change relative to control, HMGCS1, RT-PCR” value is −0.82. In the data set on rat liver mRNAs (6 h), the “Fold-change relative to control, HSD17B7, RT-PCR” value is recorded as −0.66; the “Fold-change relative to control, ID3, RT-PCR” value is 0.30; the “Fold-change relative to control, NQO1, RT-PCR” value is recorded as −0.50; the “Fold-change relative to control, S100A9, RT-PCR” value is reported as −0.36. In the data set on rat liver mRNAs (24 h), the “Fold-change relative to control, BZRP, RT-PCR” value was found to be 1.13; the “Fold-change relative to control, CCND1, RT-PCR” value is on record as −2.32; the “Fold-change relative to control, HMGCR, RT-PCR” value was found to be 0.45; the “Fold-change relative to control, HMGCS1, RT-PCR” value worked out at 1.44. In the data set on rat liver mRNAs (24 h), the “Fold-change relative to control, HSD17B7, RT-PCR” value amounted to 1.21; the “Fold-change relative to control, ID3, RT-PCR” value was −1.52; the “Fold-change relative to control, NQO1, RT-PCR” value is recorded as 1.73; the “Fold-change relative to control, S100A9, RT-PCR” value is reported as 2.92. Moreover, in data set [1], the “liver histology (H&E)” value is listed as “hepatotoxicity”. In addition, the concentration at 24 h in data set [2] (serum, 24 hours, read-out: level of actein in serum) amounted to 102 ng/mL. The concentration at 24 h in data set [2] (urine, 24 h, read-out: level of actein in urine) amounted to 777 ng/mL. Moreover, the NF-kB promoter activity in the data set on NF-κB promoter (20 μg/ml) is recorded as 1.59 fold. Besides, the NF-kB promoter activity in the data set on NF-κB promoter (40 μg/ml) was 0.12 fold.

As for `C[C@H]1O[C@@H](O[C@H]2[C@@H](O)C[C@H](O[C@H]3[C@@H](O)C[C@H](O[C@H]4CC[C@@]5(C)[C@H](CC[C@@H]6[C@@H]5CC[C@]5(C)[C@@H](C7=CC(=O)OC7)CC[C@]65O)C4)O[C@@H]3C)O[C@@H]2C)C[C@H](O)[C@@H]1O` [digitoxin], the therapeutic plasma concentration result in data set [3] is “greater than 10 ng/ml and > 13 nM”. Also, in the data set with MDA-MB-453 cells (digitoxin 20 ng/ml, 24 hours), the “number of genes with significantly altered expression” value is given as 22. Also, the “number of genes altered” value was determined as 2 with MDA-MB-453 cells (digitoxin 0.1 μg/mL, 6 hours); 8 with MDA-MB-453 cells (digitoxin 0.1 μg/mL, 24 hours); 6 in the data set with MDA-MB-453 cells (digitoxin 0.2 μg/mL, 6 hours); 88 in the data set with MDA-MB-453 cells (digitoxin 0.2 μg/mL, 24 hours); 87 in the data set on MDA-MB-453 cells (digitoxin 1 μg/mL, 6 hours); 1491 with MDA-MB-453 cells (digitoxin 1 μg/mL, 24 hours).

Values taken from patent US20120208776A1 (priority 2002, published 2012).
